From paper PMC6677754, “In silico design and optimization of selective membranolytic anticancer peptides” (Scientific Reports, 2019) come the findings set out here.

SMILES strings stand for the structures. Read-outs that look alike come from different tables or passages of the source. Peptide text beside a SMILES is read from it.

For assay [1], the system named is A549 lung adenocarcinoma cell line. As to the kind of experiment: Cell viability assay (MTT). It is filed as cell-based, human. How it is done:
(§1) 10% fetal bovine serum and 1% penicillin-streptomycin (Thermo Fisher Scientific, Waltham, MA, USA). The cultures were kept at 37°C in a 5% CO2 atmosphere incubator (Thermo Fisher Scientific, Waltham, MA, USA) and split every two to three days to new culture flasks. Cells no older than 20 passages were used for experiments.
(§2) For splitting, the cell culture media was aspirated, the cells were washed with 0.01 M phosphate buffered saline (PBS, Gibco, Thermo Fisher Scientific, Waltham, MA, USA) and trypsin-EDTA (trypsin - ethylene diamine tetraacetic acid, Fisher scientific, UK) was added to the cell layer to detach them from the flask surface. After incubation for 2 min at 37°C, cells were resuspended with an equal volume of DMEM media and centrifuged at 310 g for 5 min at 4°C. After removal of the supernatant the cells were resuspended in DMEM cell media and split into new cell culture flasks at a 1/3 to 1/5 ratio.
(§3) Determination of the anticancer peptides half effective concentration (EC50) was performed by a 3-(4,5-dimethylthiazol-2-yl)-2,5-diphenyltetrazolium bromide (MTT) assay, as described elsewhere21. Briefly, […] were seeded in each well of a 96-well plate and left to adhere and […]
(§4) sulfoxide (DMSO, Fisher Scientific, UK) at an intermediate concentration of 1 mM. The peptides were then diluted in a 2-fold dilution series starting at 100 μM with DMEM culture media. Cells were incubated with the peptide solutions for 24 h. After this time, the cell media was removed and the cells were incubated for 1 h with a 0.5 mg mL−1 MTT solution to allow enough time for formazan crystal formation (Sigma Aldrich, Steinheim, Germany). The supernatant was removed and 100 μL of DMSO were added into each well to resuspend the formazan crystals.
(§5) After manually shaking the plates to completely dissolve the crystals, the absorbance was measured at 540 nm in a Tecan Infinity M1000 spectrophotometer. The cell viability was determined based on the quantification of the color intensity in each culture well, considering the absorbance obtained by the control media without peptides as a 100% survival. The resultant sigmoidal curves were analyzed with the drc22 R package using a log-logistic model

Assay [2] has as its system MCF7 breast adenocarcinoma cell line. Description: Cell viability assay (MTT). It is filed as cell-based, human. The note with it: 10^4 cells per well, 24 h with peptide, 2-fold dilution series from 100 µM in DMEM, absorbance 540 nm, mean ± std, N = 3. As for the experimental part:
as §1, §2, §3, §4, §5

The mark [3] stands for this setting: MTT, 10^4 cells per well, 24 h with peptide, 2-fold dilution series from 100 µM in DMEM, absorbance 540 nm, mean ± std, N = 3, read-out: A549 EC50/µM.

For the compound `CC[C@H](C)[C@H](NC(=O)[C@H](Cc1c[nH]c2ccccc12)NC(=O)[C@H](CCCNC(=N)N)NC(=O)[C@H](CCCNC(=N)N)NC(=O)[C@H](CC(C)C)NC(=O)[C@H](Cc1c[nH]c2ccccc12)NC(=O)[C@H](CC(N)=O)NC(=O)[C@H](Cc1c[nH]cn1)NC(=O)[C@@H](NC(=O)[C@H](CCCCN)NC(=O)[C@H](CCCCN)NC(=O)[C@@H](NC(=O)[C@H](Cc1c[nH]c2ccccc12)NC(=O)[C@@H](N)CCCCN)C(C)C)C(C)C)C(=O)N[C@@H](CCCCN)C(=O)N[C@H](C(=O)N[C@@H](Cc1ccccc1)C(=O)N[C@@H](CCC(=O)O)C(=O)N[C@@H](C)C(=O)N[C@@H](CC(C)C)C(=O)N[C@@H](Cc1ccccc1)C(=O)NCC(N)=O)C(C)C` [AmphiArc1] (H-KWVKKVHNWLRRWIKVFEALFG-NH2), the figures for the EC50 in assay [1] (setting [3]) and in assay [2] were 18.4 ± 0.7 µM and 7 ± 0.5 µM, respectively.

For the compound `CC[C@H](C)[C@H](NC(=O)[C@H](Cc1ccc(O)cc1)NC(=O)[C@H](CC(N)=O)NC(=O)[C@H](CC(C)C)NC(=O)[C@H](CCC(=O)O)NC(=O)[C@H](CCC(=O)O)NC(=O)[C@H](CCCCN)NC(=O)[C@@H](NC(=O)[C@H](CO)NC(=O)[C@H](Cc1c[nH]cn1)NC(=O)[C@H](CCCNC(=N)N)NC(=O)[C@H](Cc1ccccc1)NC(=O)[C@H](C)N)C(C)C)C(=O)N[C@@H](CCCNC(=N)N)C(=O)N[C@@H](CCCNC(=N)N)C(=O)N[C@@H](CCCNC(=N)N)C(=O)N[C@@H](CC(C)C)C(=O)N[C@@H](CCC(=O)O)C(=O)N[C@@H](CCCNC(=N)N)C(=O)N[C@@H](Cc1ccccc1)C(=O)N1CCC[C@H]1C(=O)N[C@@H](CC(N)=O)C(=O)N[C@@H](CCCNC(=N)N)C(=O)N[C@@H](CC(C)C)C(N)=O` [AmphiArc3] (H-AFRHSVKEELNYIRRRLERFPNRL-NH2; N-terminus assumed), the EC50 in assay [1] (setting [3]) and in assay [2] was greater than 50 µM each time.

Turning to `CC[C@H](C)[C@H](NC(=O)[C@H](CO)NC(=O)[C@H](CCC(N)=O)NC(=O)[C@H](CC(C)C)NC(=O)[C@H](CCCNC(=N)N)NC(=O)[C@H](CCCCN)NC(=O)[C@H](CCCNC(=N)N)NC(=O)[C@H](CC(C)C)NC(=O)CNC(=O)[C@H](CC(N)=O)NC(=O)[C@H](CCC(=O)O)NC(=O)[C@@H](NC(=O)[C@@H](N)CCCNC(=N)N)[C@@H](C)CC)C(=O)N[C@@H](Cc1ccc(O)cc1)C(=O)N[C@@H](CCCNC(=N)N)C(=O)N[C@@H](Cc1c[nH]cn1)C(=O)N[C@@H](CC(C)C)C(=O)N[C@@H](CCC(=O)O)C(=O)N[C@@H](CCC(=O)O)C(N)=O` [AmphiArc4] (H-RIENGLRKRLQSIYRHLEE-NH2; N-terminus assumed), the EC50 in assay [1] (setting [3]) and in assay [2] was greater than 50 µM throughout.

As to `CC[C@H](C)[C@H](NC(=O)[C@H](Cc1c[nH]c2ccccc12)NC(=O)[C@@H](NC(=O)[C@H](CCCNC(=N)N)NC(=O)[C@@H](NC(=O)[C@H](Cc1c[nH]c2ccccc12)NC(=O)[C@@H](N)CCCCN)C(C)C)[C@@H](C)CC)C(=O)N[C@@H](CCCCN)C(=O)N[C@H](C(=O)N[C@@H](CC(C)C)C(=O)N[C@@H](CCCNC(=N)N)C(=O)NCC(=O)N[C@@H](CC(C)C)C(=O)N[C@@H](Cc1ccccc1)C(=O)N[C@H](C(=O)N[C@@H](Cc1c[nH]c2ccccc12)C(=O)N[C@H](C(=O)N[C@@H](Cc1c[nH]c2ccccc12)C(=O)N[C@@H](Cc1ccccc1)C(=O)N[C@@H](Cc1ccccc1)C(N)=O)C(C)C)C(C)C)C(C)C` [Gradient1] (H-KWVRIWIKVLRGLFVWVWFF-NH2; N-terminus assumed), the EC50 in assay [1] (setting [3]) and in assay [2] was greater than 50 µM in each case.

As to `CC[C@H](C)[C@H](NC(=O)[C@H](CCCNC(=N)N)NC(=O)[C@H](CCCCN)NC(=O)[C@H](CC(C)C)NC(=O)[C@H](Cc1c[nH]c2ccccc12)NC(=O)[C@H](C)N)C(=O)N[C@@H](CCCCN)C(=O)N[C@@H](CCCCN)C(=O)N[C@@H](Cc1ccccc1)C(=O)N[C@@H](CC(C)C)C(=O)N[C@@H](CCCCN)C(=O)N[C@@H](C)C(=O)N[C@@H](CC(C)C)C(=O)N[C@@H](Cc1ccccc1)C(=O)N[C@@H](Cc1c[nH]c2ccccc12)C(=O)N[C@H](C(=O)N[C@@H](Cc1c[nH]c2ccccc12)C(=O)N[C@H](C(=O)N[C@@H](Cc1c[nH]c2ccccc12)C(N)=O)C(C)C)C(C)C` [Gradient2] (H-AWLKRIKKFLKALFWVWVW-NH2), the EC50 in assay [1] (Fig. S11, experimental replicate 1 (top panel), fit value (error in brackets), N = 6 technical replicates, MTT 24 h, read-out: EC50) is 107 µM; in assay [1] (Fig. S11, experimental replicate 2 (middle panel), fit value (error in brackets), N = 6 technical replicates, MTT 24 h, read-out: EC50), 152 µM; in assay [1] (Fig. S11, experimental replicate 3 (bottom panel), fit value (error in brackets), N = 6 technical replicates, MTT 24 h, read-out: EC50), 487 µM; in assay [1] (setting [3]), greater than 50 µM; in assay [2], 19 ± 1.8 µM.

Take `CC[C@H](C)[C@H](NC(=O)[C@@H](NC(=O)[C@H](CC(C)C)NC(=O)[C@@H](NC(=O)[C@H](CC(N)=O)NC(=O)[C@H](CCC(=O)O)NC(=O)[C@H](Cc1ccccc1)NC(=O)[C@H](CC(N)=O)NC(=O)[C@H](CC(=O)O)NC(=O)[C@@H](NC(=O)[C@@H](NC(=O)[C@@H](N)CCCCN)C(C)C)C(C)C)[C@@H](C)CC)[C@@H](C)CC)C(N)=O` [Gradient3] (H-KVVDNFENILII-NH2; N-terminus assumed): the EC50 in assay [1] (setting [3]) and in assay [2] was greater than 50 µM throughout.

On to `CC[C@H](C)[C@H](NC(=O)[C@H](CC(N)=O)NC(=O)[C@@H]1CCCN1C(=O)[C@@H](NC(=O)[C@H](C)NC(=O)[C@H](C)NC(=O)[C@H](CC(N)=O)NC(=O)[C@@H](NC(=O)[C@@H](N)CCCNC(=N)N)C(C)C)[C@@H](C)CC)C(=O)N[C@H](C(=O)N[C@H](C(N)=O)C(C)C)[C@@H](C)CC` [Gradient4] (H-RVNAAIPNIIV-NH2; N-terminus assumed), for which the EC50 in assay [1] (setting [3]) and in assay [2] was greater than 50 µM throughout.

`CC[C@H](C)[C@H](NC(=O)[C@H](CC(C)C)NC(=O)[C@H](CCCCN)NC(=O)[C@H](CC(C)C)NC(=O)[C@@H](NC(=O)[C@H](C)NC(=O)CNC(=O)[C@H](C)NC(=O)[C@H](CC(C)C)NC(=O)[C@H](CCCCN)NC(=O)CNC(=O)[C@H](CC(C)C)NC(=O)[C@H](CCCCN)NC(=O)[C@@H](NC(=O)[C@H](Cc1c[nH]c2ccccc12)NC(=O)[C@H](CC(C)C)NC(=O)[C@@H](N)Cc1ccccc1)[C@@H](C)CC)C(C)C)C(=O)N[C@@H](CC(C)C)C(=O)NCC(=O)N[C@@H](CC(C)C)C(=O)N[C@@H](CCCCN)C(=O)N[C@@H](CCCCN)C(=O)N[C@H](C(=O)N[C@H](C(N)=O)C(C)C)C(C)C` [Helical1] (H-FLWIKLGKLAGAVLKLILGLKKVV-NH2): the EC50 in assay [1] (setting [3]) was determined as 8.3 ± 2 µM; in assay [2], 4.4 ± 1.3 µM.

On to `CC[C@H](C)[C@H](NC(=O)[C@H](C)NC(=O)[C@H](Cc1c[nH]c2ccccc12)NC(=O)[C@H](CC(C)C)NC(=O)CN)C(=O)N[C@@H](C)C(=O)N[C@H](C(=O)N[C@@H](CCCCN)C(=O)N[C@@H](C)C(=O)NCC(=O)N[C@@H](CCCCN)C(=O)N[C@H](C(=O)N[C@H](C(=O)N[C@@H](CC(C)C)C(=O)N[C@@H](CCCCN)C(=O)N[C@@H](CC(C)C)C(=O)N[C@H](C(=O)N[C@H](C(=O)N[C@@H](Cc1ccccc1)C(=O)N[C@H](C(=O)N[C@@H](Cc1c[nH]c2ccccc12)C(=O)N[C@H](C(=O)N[C@@H](CCCNC(=N)N)C(=O)N[C@H](C(N)=O)C(C)C)[C@@H](C)CC)[C@@H](C)CC)C(C)C)[C@@H](C)CC)[C@@H](C)CC)C(C)C)C(C)C` [Helical2] (H-GLWAIAVKAGKVILKLIVFIWIRV-NH2; N-terminus assumed), for which the EC50 in assay [1] (setting [3]) and in assay [2] was greater than 50 µM throughout.

Consider `CC[C@H](C)[C@H](NC(=O)[C@H](CC(=O)O)NC(=O)[C@H](CC(C)C)NC(=O)[C@H](CC(C)C)NC(=O)CN)C(=O)N[C@@H](C)C(=O)NCC(=O)NCC(=O)N[C@@H](CC(N)=O)C(=O)N[C@@H](C)C(=O)N[C@@H](CCC(=O)O)C(=O)N[C@H](C(=O)N[C@@H](CC(C)C)C(=O)N[C@@H](C)C(=O)NCC(=O)N[C@@H](Cc1c[nH]cn1)C(=O)N[C@@H](C)C(=O)N[C@H](C(N)=O)C(C)C)[C@@H](C)O` [Helical3] (H-GLLDIAGGNAETLAGHAV-NH2; N-terminus assumed), for which the EC50 in assay [1] (setting [3]) and in assay [2] was greater than 50 µM throughout.

As for `CC[C@H](C)[C@H](NC(=O)[C@@H](NC(=O)[C@H](CC(=O)O)NC(=O)[C@H](Cc1ccccc1)NC(=O)[C@H](CC(C)C)NC(=O)CN)C(C)C)C(=O)NCC(=O)N[C@@H](CO)C(=O)N[C@@H](CCC(N)=O)C(=O)N[C@@H](C)C(=O)NCC(=O)NCC(=O)N[C@@H](C)C(=O)N[C@@H](C)C(=O)N1CCC[C@H]1C(=O)N[C@@H](Cc1c[nH]cn1)C(=O)N[C@@H](Cc1ccccc1)C(=O)N[C@@H](CC(C)C)C(=O)NCC(N)=O` [Helical4] (H-GLFDVIGSQAGGAAPHFLG-NH2; N-terminus assumed), the EC50 in assay [1] (setting [3]) and in assay [2] was greater than 50 µM throughout.
